Experimental findings from US11504414B2, “Bacterial inhibitors” (priority 2016, dated 2022) are described below.

Where no end group is shown, it is not given here.

In data set [1] the test system is P. gingivalis 33277. It counts as cell-based, Porphyromonas gingivalis. As to conditions: for inhibitory activity on virulence gene expression: lower efficiency than peptide4; for Relative expression level fmA / Relative expression level kgp / Relative expression level mfa1 / Relative expression level pgn0128 / Relative expression level rgpA / Relative expression level rgpA/B: peptide 16 μM in TSB; for Relative expression level fmA: mRNA by real-time PCR relative to absence of peptides = 1 unit, mean of three experiments; for Relative expression level kgp / Relative expression level mfa1 / Relative expression level pgn0128 / Relative expression level rgpA / Relative expression level rgpA/B: mRNA relative to absence of peptides = 1 unit. As for the experimental part:
The half inhibitory concentration (IC50) was measured by conducting three independent experiments to determine mRNA levels of fimA, mfa1, rgpA/B, and kgp in the presence of peptide4 at the concentrations 0, 4, 16, and 64 μM, respectively. The IC50 for each gene was established using a Microsoft Excel program with add-in for curve fitting. Asterisks indicate the statistical significances of IC50 of peptide4 for a specific gene when compared to that for the fimA gene (P<0.05; t test).
RNA isolation and qPCR. P. gingivalis were homogenized in Trizol Reagent (Invitrogen, Carlsbad, Calif.) and RNA was purified using an RNeasy mini spin column (Qiagen, Valencia, Calif.). RNA samples were digested on-column with RNase-free DNase, and total RNA was tested using an Agilent 2100 Bioanalyzer to ensure the quality of the samples. Amplification reactions consisted of a reverse transcription using a Bio-Rad iScript Reverse Transcription Supermix on a TC-3000 thermal cycler (Techne, Staffordshire, ST15 OSA, UK) and a real-time qRT-PCR analysis using a QuantiTect SYBR Green RT-PCR Kit (Qiagen) on an iCycler MyiQ™ Real-Time PCR detection system (Bio-Rad Laboratories, Inc, Hercules, Calif.) according to the manufacturer's instructions. P. gingivalis 16 S rRNA gene was used as a normalizing gene. The melting curve profile was analyzed to verify a single peak for each sample, which indicated primer specificity. The expression levels of the investigated genes for the test sample were determined relative to the untreated calibrator sample by using the comparative cycle threshold (ΔCT) method. ΔCT was calculated by subtracting the average CT value of the test sample from the average CT value of the calibrator sample, and the value used to calculate the ratio between the two by assuming 100% amplification efficiency.
Peptide synthesis and activity. Peptides were synthesized by PEPperPRINT and Biomatik (Delaware) and purified with High Performance Liquid Chromatography (HPLC) at 90% purity. Peptides were resuspended in nuclease/proteinase-free PBS, aliquoted, and stored at −20° C. Inhibitory activity of peptides were determined as described (Hajishengallis, G., Darveau, R. P. & Curtis, M. A. The keystone-pathogen hypothesis. Nature reviews. Microbiology 10, 717-725, doi:10.1038/nrmicro2873 (2012)) with slight modification. Peptides were mixed with 5×10^5 cells of P. gingivalis, spotted onto a TSB blood agar plate, and cultured for 60 h anaerobically. The expression levels of fimbrial and gingipain mRNA or proteins were measured using qRT-PCR or western blot analyses.
P. gingivalis 33277 was grown TSB in the presence or absence of peptide at a concentration 16 μM. Transcript levels were measured by real-time PCR. The mRNA levels of genes are indicated relative to the expression level in the absence of peptides as 1 unit. Results shown are means and standard deviations from three independent experiments. Asterisks indicate the statistical significance of expression levels at least two fold in P. gingivalis grown in TSB with/without peptides (P<0.05; t test).

The test system of data set [2] is surface extracts of P. gingivalis 33277. Kind of data set: ArcA peptide microarray binding of surface extracts. Also noted: species or system Porphyromonas gingivalis. The settings on record: portions of ArcA. The procedure:
The five highest peaks are numbered.
Protein Interaction Screening. Surface extracts of P. gingivalis were collected by sonication (1 min for three times) and centrifugation (13000 g for 30 min) followed by filtration (0.2 μm pore size). Peptide microarray analysis was performed by PEPperPRINT (Heidelberg, Germany). An ArcA microarray was generated with 409 different peptides of ArcA, and each peptide contained 15 amino acids with a peptide-peptide overlap of 14 amino acids. After blocking and washing, the array was incubated with surface extracts (100 μg/ml) isolated from P. gingivalis 33277, the 0806 mutant, or the ragB mutant. P. gingivalis surface proteins bound on the ArcA array were detected using anti-P. gingivalis antibodies and sheep anti-rabbit IgG (H+L) DyLight680. The arrays were analyzed with a LI-COR Odyssey Imaging System.

The subject of data set [3] is HOKs. Kind of data set: LDH cytotoxicity assay. It counts as cell-based, human. The settings on record: P4 as high as 200 μM, 48 h. As for the experimental part: (§1) To examine the cytotoxic effects of P4, plasma membrane damage of HOKs was determined by the Pierce LDH Cytotoxicity Assay Kit. HOKs were seeded into a 6-well plate at a density of 1×10^5/well and cultured in Oral Keratinocyte Medium supplemented with antibiotics (100 U/mL penicillin and 100 μg/mL streptomycin) and 10% fetal calf serum at 37° C. in a humidified chamber with 5% CO2 for 24 h. The cells were then incubated with the growth medium supplemented with P4 (50 or 200 μM) for 48 h. The growth medium was collected for an LDH cytotoxicity assay according to the manufacturer's instructions (Thermo Scientific). To measure the effect of P4 on HOK apoptosis, HOKs were harvested and stained with Annexin V-FITC Apoptosis Kit (Invitrogen), which is able to stain both apoptotic cells and dead cells. Flow cytometric analysis was performed to quantitate apoptotic cells and dead cells (annexin V+/PI+).

Data set [4] concerns HOKs. Put plainly: Annexin V-FITC apoptosis assay (flow cytometry). Type of data set: cell-based, human. As to conditions: P4 as high as 200 μM, 48 h. The procedure: as §1
For orientation: A flow cytometer gives signals particle by particle.

A short description of data set [5]: P4 stability in H2O and PBS (LC-MS/MS). Type of data set: physicochemical. The procedure: Non-proteinogenic amino acids may improve peptide stability.
(§2) To determine P4 stability in solution, P4 was incubated in H2O, PBS, and whole saliva at 37° C. for 24 h. P4 in each sample was compared using LC-MS/MS analysis. Briefly, 2 μM P4 was injected on C18 nano-clumn and run with 5-20% of 0.1% FA in acetonitrile for 30 min. MS spectra were acquired in a positive mode on Orbitrap LTQ XL (Thermo).

Data set [6] in a line: P4 stability in whole saliva (LC-MS/MS). Type of data set: in vitro ADME. As for the experimental part:
as §2

The conditions of data set [7]: buffer (PBS) and TBS (growth medium of P. gingivalis).
Data set [8] is described as follows: P4 stability in whole saliva (LC-MS/MS). It counts as in vitro ADME. This is another data set of the same source.
Data set [9] deals with P. gingivalis 33277. Put plainly: Immunofluorescence/confocal assay of ArcA binding to bacteria. Also noted: species or system Porphyromonas gingivalis. As to conditions: purified ArcA 50 μg, 10^8 cells. The procedure: The upper panel presents differential interference contrast (DIC) images showing the location of the bacteria. The red images in the lower panel are the TRITC fluorescence labeling images representing S. cristatus ArcA bound to P. gingivalis 33277 or A. actinomycetemcomitans Y4 that are positively labeled by ArcA specific antibody.
Confocal microscopy. ArcA (50 μg) was purified from S. cristatus CC5A as described (Teles R, Teles F, Frias-Lopez J, Paster B, Haffajee A. 2013. Lessons learned and unlearned in periodontal microbiology. Periodontal 2000 62: 95-162), mixed with P. gingivalis cells (10^8) in PBS and incubated at room temperature for 1 h. After washing three times with PBS, bacteria-protein complexes were blocked in PBS with 5% BSA for 1 h. ArcA bound to P. gingivalis was detected by staining with rabbit anti-ArcA polyclonal antibody (1:400) and tetramethyl rhodamine isothiocyanate (TRITC, 1:500)-conjugated AffiniPure Goat Anti-Rabbit IgG antibody. Visualization was with a LSM 510 inverted confocal microscope with selected filters (543 nm excitation and 560 nm emission).

The subject of data set [10] is P. gingivalis RagB (PGN_0294) and MotA/ToIQ/ExbB proton channel family protein (PGN_0806). Put plainly: Pull-down assay of ArcA-interacting surface proteins. It counts as binding, Porphyromonas gingivalis. As to conditions: MS identification. The procedure:
Pull-down assays. To isolate and identify P. gingivalis surface molecule(s) that interacts with ArcA, we performed a pull-down assay. Surface extracts of P. gingivalis were prepared by sonication with a Sonic Dismembrator (Fisher Scientific; output control 8, 20 s×3), and the cell debris were removed by centrifugation followed by filtration (0.2-μm pore size). Surface extracts of 33277 were mixed with purified ArcA on a rotator at room temperature for 1 h, and then added to an ArcA antibody coupled Sepharose 4B column (Sigma-Aldrich). After incubation at room temperature for 1 h, the column was washed three times with PBS containing 0.01% Tween, and proteins were eluted by 0.1 M Glycine pH 2.4. After SDS-PAGE, bands were excised and identified by liquid chromatography-mass spectrometry.

As to “ELVRGRGGPRCMSMPF (listed as Streptococcus cristatus) [P5, ArcA-derived peptide from residue 389, C-terminal domain]”, in the data set with P. gingivalis 33277 [1], the “inhibitory activity on virulence gene expression” value (shortened to “inhibitory activity”) is “some inhibitory activity”, the “Relative expression level fmA” value came out at 0.97, the “Relative expression level kgp” value worked out at 0.96 and the “Relative expression level mfa1” value is 0.83. In the data set on P. gingivalis 33277 [1], the “Relative expression level pgn0128” value came out at 0.91, the “Relative expression level rgpA” value is on record as 0.73 and the “Relative expression level rgpA/B” value is on record as 0.72. In addition, in [2], the “binding to P. gingivalis surface proteins” value is reported as “demonstrated to bind”.

On to “IRGRETKK (listed as Streptococcus cristatus) [P1, ArcA-derived peptide from residue 97, N-terminal domain]”, for which, in the data set with P. gingivalis 33277 [1], the “inhibitory activity” value is “some inhibitory activity”, the “Relative expression level fmA” value came out at 0.88, the “Relative expression level kgp” value came out at 1.06 and the “Relative expression level mfa1” value stood at 0.85. In the data set with P. gingivalis 33277 [1], the “Relative expression level pgn0128” value is reported as 0.96, the “Relative expression level rgpA” value is given as 0.86 and the “Relative expression level rgpA/B” value was determined as 0.89. Moreover, in data set [2], the “binding to P. gingivalis surface proteins” value was “demonstrated to bind”.

As to “NHMFADTRNRE (listed as Streptococcus cristatus) [P2, ArcA-derived peptide from residue 177, N-terminal domain]”, in the data set on P. gingivalis 33277 [1], the “inhibitory activity” value was “some inhibitory activity”, the “Relative expression level fmA” value is 0.80, the “Relative expression level kgp” value is recorded as 0.90 and the “Relative expression level mfa1” value came to 0.80. In the data set with P. gingivalis 33277 [1], the “Relative expression level pgn0128” value amounted to 0.88, the “Relative expression level rgpA” value stood at 0.81 and the “Relative expression level rgpA/B” value came to 0.78. The “binding to P. gingivalis surface proteins” value in data set [2] is recorded as “demonstrated to bind”.

Consider NIFKKNVGFKK [P4, NIFKKNVGFKK], for which the “cell membrane damage of HOKs (LDH)” value with HOKs [3] was “did not induce”. The “apoptosis of HOKs (annexin V/PI)” value in the data set on HOKs [4] is given as “did not induce”. For the same substance, the “stability at 37° C.” value in [5] (37° C. for 24 h, initial study) was “stable”. Moreover, in [5] (24 h incubation, 37° C.), the “stability in H2O and PBS” value is listed as “not affected”. Moreover, the “time P4 can maintain in saliva at certain level” value in [6] (37° C.) is “at least 24 h”. The “signal in diluted whole saliva” value in data set [6] (PBS:saliva 1:1, 0, 0.5, 1, 2, 4 and 24 h) is listed as “gradual reduction”; in [8] (after 48 h), “completely diP4eared”. For the same substance, the “Signal Intensity of 331.45 m/z peak” value is reported as 3.9 × 10^6 ± 3.1 × 10^5 in data set [6] (Saliva (PBS:saliva 1:1), 0 hour); 3.6 × 10^6 ± 4.0 × 10^5 in data set [6] (Saliva, 0.5 hour, 37° C.); 2.4 × 10^6 ± 2.2 × 10^5 in [6] (Saliva, 1 hour, 37° C.); 1.7 × 10^6 ± 4.2 × 10^5 in data set [6] (Saliva, 2 hour, 37° C.); 8.8 × 10^5 ± 2.7 × 10^4 in [6] (Saliva, 4 hour, 37° C.); 4.2 × 10^5 ± 3.9 × 10^4 in [6] (Saliva, 24 hour, 37° C.). The “Signal Intensity of 331.45 m/z peak” value in data set [8] (Saliva, 48 hour, 37° C.) is reported as 6.0 × 10^3 ± 4.1 × 10^2. In addition, in data set [7], the “solubility” value is given as “can be dissolved”.

Turning to “VYNREEDTRIEGGDEL (listed as Streptococcus cristatus) [P3, ArcA-derived peptide from residue 208, C-terminal domain]”, in the data set with P. gingivalis 33277 [1], the “inhibitory activity” value was “some inhibitory activity”, the “Relative expression level fmA” value amounted to 0.87, the “Relative expression level kgp” value was 0.99 and the “Relative expression level mfa1” value was determined as 0.82. Also, in the data set with P. gingivalis 33277 [1], the “Relative expression level pgn0128” value is recorded as 0.91, the “Relative expression level rgpA” value was found to be 0.84 and the “Relative expression level rgpA/B” value is recorded as 0.98. The “binding to P. gingivalis surface proteins” value in data set [2] is recorded as “demonstrated to bind”.

Regarding arginine deiminase [ArcA], the “affinity of ArcA for bacterial cells” value with P. gingivalis 33277 [9] was “high affinity”. The “interaction with P. gingivalis surface proteins PGN_0294 and PGN_0806” value in [10] was “found to interact”.
